Results: patent US7101707B2, “Secondary sprouting for isolation and expansion of endothelial sprout cells and endothelial precursor cells from a mixed population and for screening substances” (Cedars-Sinai Medical Center, priority 2002, dated 2006)
Entries after “also recorded” stand apart in the source; their conditions may differ. Values belong to the compound of their own block, whether it stands above or below them. Numbered stars: 1 amine (or outer) side, 2 acyl side, 3 side chain; on linkers, the order of the positions; unused ones are H or OH. Bridge positions count the residues as written; N and C are the ends. Square brackets hold non-standard residues; d marks the D form. Peptide text beside a SMILES is read from it. I, II: the chains in the order shown. Actinocin(9to1) = Cc1c2oc3c(C)ccc(C(=O)[*:1])c3nc-2c(C(=O)[*:2])c(N)c1=O; NMeV = CN[C@H](C(=O)O)C(C)C; Sar = CNCC(=O)O

What was measured:
REC [1] = assay: Angiogenic assays taken together (proliferation, secondary sprouting, migration, tube formation); assay type: cell-based, bovine; conditions: all assays
Protocol: Treatment of REC cultures. Duplicate REC cultures on plastic (for migration) or MATRIGEL™ biological cell culture substrate with the same number of cells per dish are treated with previously established working concentrations of signaling inhibitors and/or select growth factor combinations. Treatments begin at the time of seeding the cells and medium is changed every other day. Single growth factors are used as negative controls since their modulation of TN-C effects was minimal. Working growth factor concentrations were as follows: VEGF, 1–50 ng/mL depending on the assay; PlGF, 100 ng/mL; FGF-2, 10–100 ng/mL; IGF-I, 25–100 ng/mL; PDGF-BB, 10–100 ng/mL. When used as combinations, each growth factor was supplied at 10 ng/mL for optimum synergy. The already tested inhibitors of signaling molecules (Sigma, Calbiochem, BIOMOL) were used at the following optimized doses: protein kinase A (inhibitor: H89 [25 μM]), PKC (inhibitor: calphostin C [2.5 μM]), PKC-β (inhibitor: LY379196 [50 nM]), Ca^2+/calmodulin kinase II (inhibitor: KN-93 [0.5 μM]), CK1 (inhibitor: CKI-7 [50 μM]), MEK-ERK (inhibitor: PD98059 [10 μM]), p38 MAP kinase (inhibitor: SB202190 [10 μM]), PI3 kinase (inhibitor: wortmannin [100 nM]), CK2 (inhibitors: emodin [20–25 μM] and DRB [20–25 μM]), CK2 and other kinases (inhibitor: quercetin [50 μM]); and a negative control for kinase inhibition (SB202474 [10 μM]). […]

bovine REC [2] = assay: REC proliferation assay (MTS); assay type: cell-based; conditions: for effect of kinase inhibitors on proliferation: basal and growth factor-stimulated (CK2 blockers), H-7 preliminary, not shown
Protocol: (§1) REC proliferation and survival assays. 96-well plates were coated with various amounts of TN-C or vehicle. 5×10^3 cells were added to each triplicate well in low-serum REC medium with various amounts of growth factors (0.5% FCS incomplete BREC medium containing 10 ng/ml of human IGF-I, FGF-2, VEGF, PlGF and PDGF-BB [R&D Systems Inc., Minneapolis, Minn.]). Cell numbers were determined on days 4–7 using the MTS cell proliferation assay (Promega Corp.) according to manufacturer's instructions. Survival was measured in the same way using high glucose (30 mM) or chemical hypoxia (2 mM sodium azide) or serum-free medium to induce cell death. Cell numbers were determined on days 4–7 using MTS assay (Promega).

bovine REC [3] = assay: REC survival assay (MTS, low serum); assay type: cell-based; conditions: for effect of growth factors on REC survival: growth factors 10 ng/mL each
Protocol: as §1

bovine REC [4] = assay: Migration (wound healing) assay; assay type: cell-based; conditions: for effect of kinase inhibitors on migration: basal and growth factor-stimulated (CK2 blockers), H-7 preliminary, not shown; for effect of growth factors on REC migration: growth factors 10 ng/mL each
Protocol: Migration assay. REC migration rates were examined in a wound healing assay, where cells migrate over time into the scrape wound in a monolayer. Briefly, cells were seeded in 24-well plates and allowed to reach confluence in growth medium. Prior to growth factor treatment, cells were serum-starved overnight in incomplete BREC medium with 0.5% FCS. All monolayers within an experiment were wounded with a single sterile wood stick of constant diameter, to ensure uniformity in the wound areas among different treatments. Wounded monolayers were then rinsed with low-serum medium to remove detached cells and treated with various combinations of human growth factors at 10 ng/mL each. On day 7, cells were rinsed 3× with PBS and fixed with methanol for 15 min, rehydrated with dH2O and stained with Meyer's hematoxylin for 5 min, followed by destaining with dH2O. All wells were photographed with a 4× or 10× objective using a Kodak MDS 100 digital camera attached to a Leitz DM IL inverted microscope. The original wound area was measured at 0 hr and used as a baseline for comparison to the treated wells at the conclusion of the experiment. The number of cells migrated into the wound was determined. Migrating cell counting was automated using the AAB (Advanced American Biotechnology, Fullerton, Calif.) software. Data were calculated and statistically analyzed (Spirin K S et al., Basement membrane and growth factor gene expression in normal and diabetic human retinas, Curr. Eye Res. 18:490–499 [1999]) relative to control cultures that received the same concentrations of bovine serum albumin instead of growth factors and/or inhibitor, compared to vehicle instead of inhibitor after wounding. Inhibitors were added 30 min before growth factors.

[5] = system: retinal neovascularization; assay: Oxygen-induced retinopathy in newborn mice; assay type: in vivo, mouse
bovine REC [6] = assay: Secondary sprouting assay on reconstituted basement membrane matrix (MTS); assay type: cell-based; conditions: for effect of kinase inhibitors on secondary sprouting: basal and growth factor-stimulated (CK2 blockers), H-7 preliminary, not shown
Protocol: (§2) In vitro MATRIGEL™ biological cell culture substrate assay of capillary-like tube formation and secondary sprouting. […] Briefly, 50 μL of reconstituted basement membrane matrix from mouse EHS tumor (BD or GFR MATRIGEL™ biological cell culture substrate; Becton Dickinson Labware, Bedford, Mass.) were dispensed with frozen pipettes into each well of a previously frozen, sterile 96-well plate sitting on wet ice and allowed to solidify for 1 hr at room temperature or 37° C. Approximately 5×10^4 or 7.5×10^4 REC in a 100 μL volume were seeded into each triplicate well. Human recombinant or purified growth factors were added to a final concentration of 10 ng/mL (or as noted) in 0.5% FCS incomplete BREC medium. Capillary-like tube structures formed by REC on reconstituted basement membrane matrix were photographed at various intervals ranging from 12–72 hr; pictures were scanned, digitized and analyzed using image-processing software.
For the secondary sprouting assay, cells on reconstituted basement membrane matrix were seeded as above but incubated in 0.5% FCS incomplete BREC medium without any growth factors for 3 days, allowing for tube formation and collapse. On day 3, human recombinant or purified growth factors were added to a final concentration of 10 ng/mL (or as noted) in low-serum incomplete BREC medium and incubated for another 5–6 days. Digital photographs were obtained with a Kodak MDS 100 camera attached to a Leitz DM IL inverted microscope. Digitized images obtained with a Kodak MDS 100 video camera were stored on compact discs and quantified with NIH Image 1.62 software. The number of living cells in the sprouting colonies were determined using the MTS cell proliferation assay.
A good correlation was observed between the spherical volume and the number of live cells in secondary sprouting colonies (not shown). Since the latter is an easy parameter to test by using the MTS assay, it was adopted as a faster method for studying the effect of various agents on secondary sprouting.

REC [7] = assay: Capillary-like tube formation on MATRIGEL; assay type: cell-based, bovine; conditions: for effect of kinase inhibitors on tube formation: basal and growth factor-stimulated (CK2 blockers), H-7 preliminary, not shown
Protocol: as §2

human REC = assay: Gene array analysis of growth factor action on normal and DR REC; assay type: cell-based; conditions: 10 ng/mL, 7 days, 0.5% serum
Protocol: Normal REC and DR REC gene expression patterns were compared by gene array analysis. Normal, diabetic and DR autopsy human eyes are obtained from National Disease Research Interchange (NDRI), within 24 hours after death. These eyes are used to isolate REC for culture as described hereinabove. Cultures can be used up to the fourth passage, and viable cultures can be cryogenically stored. Cultures of normal, diabetic and DR REC are established from autopsy human eyes and routinely checked for purity using von Willebrand factor immunostaining as described hereinabove. Cells are cultured in 50% F-12, 50% low-glucose DMEM with antibiotics/antimycotics (GIBCO/BRL), insulin-transferrin-selenite, ECGS (Sigma Chemical Co.), and 20% FCS. Statistical analysis of results is done with GraphPad Prism software (GraphPad Software).
In experiments, normal, diabetic, and DR REC were grown for seven days with or without 10 ng/ml VEGF, or 10 ng/mL IGF-I, or 10 ng/mL each VEGF and IGF-I, in medium with 0.5% serum. Long-term rather than short-term treatment was chosen because diabetes develops over a considerable time period. RNA isolated from REC was reverse-transcribed using Smart™ cDNA synthesis method (Clontech), to produce full-length cDNA. Two normal cases or two DR cases were pooled together. This cDNA was PCR-amplified with a short number of cycles and used as a probe for Clontech Atlas Human 1.2 1,200-gene arrays, according to the manufacturer's instructions. This technique had previously been refined and verified by Northern analysis and fully correlated gene array data with protein expression. (Spirin K S et al., Analysis of gene expression in human bullous keratopathy corneas containing limiting amounts of RNA, Invest. Ophthalmol. Vis. Sci. 40:3108–3115 [1999]). Samples were normalized to several housekeeping genes and the analysis was done with available AtlasImage 2.0 software (Clontech). Signal ratio >2 between samples was considered significant as per manufacturer's recommendation.

Compound: Cc1c2oc3c(C)ccc(C(=O)N[C@@H]4C(=O)N[C@H](C(C)C)C(=O)N5CCC[C@H]5C(=O)N(C)CC(=O)N(C)[C@@H](C(C)C)C(=O)O[C@@H]4C)c3nc-2c(C(=O)N[C@@H]2C(=O)N[C@H](C(C)C)C(=O)N3CCC[C@H]3C(=O)N(C)CC(=O)N(C)[C@@H](C(C)C)C(=O)O[C@@H]2C)c(N)c1=O [Actinomycin D] (I: T[dV]P[Sar][NMeV] / II: T[dV]P[Sar][NMeV]; ester I:1-I:C, II:1-II:C; linker I:N-II:N via Actinocin(9to1))
effect of inhibitors in angiogenic assays (REC [1]): only minor changes

Compound: OC[C@H]1O[C@@H](n2cnc3cc(Cl)c(Cl)cc32)[C@H](O)[C@@H]1O [DRB, 5,6-dichloro-1-β-D-ribofuranosylbenzimidazole]
effect of kinase inhibitors on proliferation (bovine REC [2]): potently inhibited
number of live cells, proliferation (bovine REC [2]; bovine REC, 10% serum, various concentrations, day 6, MTS): significantly lowers cell number
number of live cells, survival (bovine REC [3]; bovine REC, 0.5% serum, various concentrations, day 6, MTS): significantly lowers cell number
effect of kinase inhibitors on migration (bovine REC [4]): potently inhibited
effect on growth factor-mediated cell migration (bovine REC [4]; four GFs 10 ng/ml each, 7 days, 0.5% serum, emodin 10 μM, DRB 15 μM): significant inhibitory effect
diminution of retinal neovascularization (preretinal nuclei count) ([5]; two intraperitoneal injections daily, day 11 to 17 after birth, emodin 20–30 μg/g, vs untreated or vehicle): about 60%
effect of kinase inhibitors on secondary sprouting (bovine REC [6]): potently inhibited
concentration from which live cell number in secondary sprouting is significantly decreased (bovine REC [6]; bovine REC on MATRIGEL, 0.5% serum, day 9, MTS): ≥ 25 µM
effect of kinase inhibitors on tube formation (REC [7]): potently inhibited

effect of kinase inhibitors on migration (bovine REC [4]): inhibited
effect of kinase inhibitors on secondary sprouting (bovine REC [6]): inhibited
effect of kinase inhibitors on tube formation (REC [7]): stabilized REC tubes
Compound: CC1CNCCN1S(=O)(=O)c1cccc2cnccc12 (centres unmarked) [H-7]
effect of kinase inhibitors on proliferation (bovine REC [2]): inhibited

effect of kinase inhibitors on migration (bovine REC [4]): potently inhibited
effect of kinase inhibitors on secondary sprouting (bovine REC [6]): potently inhibited
effect of kinase inhibitors on tube formation (REC [7]): potently inhibited
Compound: O=c1c(O)c(-c2ccc(O)c(O)c2)oc2cc(O)cc(O)c12 [quercetin]
effect of kinase inhibitors on proliferation (bovine REC [2]): potently inhibited
effect on retinal neovascularization ([5]; intramuscular injections, data not shown): substantial effect

Compound: FGF-2: fibroblast growth factor (FGF)-2, angiogenic growth factor
effect of growth factors on REC migration (bovine REC [4]): little or no effect
morphology of sprouting colonies after growth factor treatment (bovine REC [6]; 10 ng/mL): longer and sparser sprouts
effect of growth factors on secondary sprouting (live cell number) (bovine REC [6]; 10 ng/mL, 0.5% FCS medium): potently stimulated; also recorded: pro-angiogenic; also recorded: dramatic increase; also recorded: greatly enhanced
stimulation of secondary sprouting (fold, on average) (bovine REC [6]; growth factors, live cells by MTS): four-fold
effect of growth factors on tube formation (REC [7]; growth factors 10 ng/mL each): little or no effect

Compound: IGF-I: insulin-like growth factor (IGF)-I
effect of growth factors on REC survival (bovine REC [3]): the opposite
effect of growth factors on REC migration (bovine REC [4]): the opposite
expression of pro-apoptotic genes (human REC): decrease

Compound: VEGF
effect of growth factors on REC survival (bovine REC [3]): little effect
effect of growth factors on REC migration (bovine REC [4]): significantly enhanced
expression of pro-apoptotic genes (human REC): did not display an increase
expression of proliferation-related genes (human REC): upregulated
expression of various phosphatases (human REC): downregulated
